The text below walks through data of patent publication USRE31731E, “Herbicidal 4-trifluoromethyl-4-nitrodiphenyl ethers” (priority 1978, dated 1984).

What all share (assay type): in vivo
The test system of one data set is rice. The experiment in a line: Crop tolerance, rice. The conditions noted are these: 50% or less kill of crop at rates giving more than 50% kill of weeds. Here is the method: (§1) The following test procedure is employed. Seeds of selected crops and weeds are planted in soil in flats. For preemergence tests, the flats are treated with the test compound immediately after the planting. For postemergence tests, the seeds are allowed to germinate, and after 2 weeks the flats are treated with the test compound. The compound to be evaluated is dissolved in acetone, diluted with water, and sprayed over the flats using a carrier volume equivalent to 50 gallons per acre at the rate of application (pounds per acre, lb/A.) specified in the tables. About 2 weeks after the application of the test compound, the state of growth of the plants is observed and the phytotoxic effect of the compound is evaluated. Table II gives the average percent control achieved by the test compounds in terms of the percent of the plants which are killed by the compounds.
(§2) Following the general test procedure of Example 73, diphenyl ethers are evaluated for significant tolerance (as shown by 50% or less kill of the test crop at levels of application which give more than 50% kill of many or all of the weeds of Example 73) towards some or all of the following common agronomic crops (not all compounds tested against all crops): alfalfa, snapbeans, corn, cotton, cucumbers, peanuts, rape, rice, safflower, soybeans, tomatoes, and wheat.

The test system of a further data set is soybeans. The experiment in a line: Crop tolerance, soybeans. The following applies: preemergence; 50% or less kill of crop at rates giving more than 50% kill of weeds. On the procedure:
as §1, §2

For the next data set, the system named is corn. The experiment in a line: Crop tolerance, corn. The conditions noted are these: 50% or less kill of crop at rates giving more than 50% kill of weeds. Here is the method: as §1, §2
Data set [1] relates to Dicots. The experiment in a line: Herbicidal activity, preemergence, dicot weeds (Table II). The following applies: pre-emergence, 336 h, about 2 weeks, read-out: % control (percent of plants killed); for pest or weed control at 2241.7 g/ha: 2 lb./A.; for pest or weed control at 4483.4 g/ha: 4 lb./A. Here is the method: (§3) Using the procedure described below, diphenyl ethers were evaluated for control of the following weeds: […]
(§4) bindweed (Convolvulus arvensis) curly dock (Remex crispus) velvetleaf (Abutilon theophrasti) wild mustard (Brassica haber)
(§5) At 2 and 4 pounds per acre: […]
(§6) cocklebur (Xanthium pensylvanicum)
(§7) **coffeeweed (Sesbania macrocarpa)
(§8) *curly dock (Rumex crispus)
(§9) *lambsquarters (Chenopodium album) morningglory (Ipomoea purpurea)
(§10) *pigweed (Amaranthus retroflexus)
(§11) **ragweed (Ambrosia artemisiifolia)
(§12) *smartweed (Polygonum pensylvanicum)
(§13) **tomato (Lycopersicon esculentum)
(§14) *wild carrot (Daucus carota)
(§15) *wild mustard (Brassica haber)
as §1

For data set [2], the system named is Monocots. The experiment in a line: Herbicidal activity, preemergence, monocot weeds (Table II). The following applies: pre-emergence, 336 h, about 2 weeks, read-out: % control (percent of plants killed); for pest or weed control at 2241.7 g/ha: 2 lb./A.; for pest or weed control at 4483.4 g/ha: 4 lb./A. On the procedure: as §3
(§16) barnyardgrass (Echinochloa crusgalli) crabgrass (Digitaria spp.) nutsedge (Cyperus esculentus)
(§17) At 2 and 4 pounds per acre:
(§18) **Bermudagrass (Cynodon dactylon)
(§19) *downy brome (Bromus tectorum) foxtail (Setaria faberii)
(§20) Johnsongrass (Sorghum halepense) […]
(§21) quackgrass (Agropyron repens)
(§22) *ryegrass (Lolium perenne)
(§23) *yellow millet (Panicum miliaceum)
as §1

Data set [3] relates to Monocots. The data set is described as follows: Herbicidal activity, postemergence, monocot weeds (Table II). The conditions noted are these: post-emergence, 336 h, about 2 weeks, read-out: % control (percent of plants killed); for pest or weed control at 2241.7 g/ha: 2 lb./A.; for pest or weed control at 4483.4 g/ha: 4 lb./A. Here is the method: as §3, §16, §17, §18, §19, §20, §21, §22, §23, §1

Data set [4] concerns Dicots. The experiment in a line: Herbicidal activity, postemergence, dicot weeds (Table II). The conditions noted are these: post-emergence, 336 h, about 2 weeks, read-out: % control (percent of plants killed); for pest or weed control at 2241.7 g/ha: 2 lb./A.; for pest or weed control at 4483.4 g/ha: 4 lb./A. Here is the method: as §3, §4, §5, §6, §7, §8, §9, §10, §11, §12, §13, §14, §15, §1

The subject of the next data set is peanuts. The experiment in a line: Crop tolerance, peanuts. The following applies: 50% or less kill of crop at rates giving more than 50% kill of weeds. On the procedure: as §1, §2
In a further data set the test system is wheat. The experiment in a line: Crop tolerance, wheat. The following applies: postemergence; 50% or less kill of crop at rates giving more than 50% kill of weeds. On the procedure:
as §1, §2

The mark [5] stands for this setting: postemergence or on transplanted rice.

As for `O=[N+]([O-])c1ccc(Oc2ccc(C(F)(F)F)cc2Cl)cc1OCC(F)(F)F` [Example 11], in the data set on rice (setting [5]), the Tolerance to rice result was “Tolerance”. The Tolerance to soybeans result in the data set on soybeans was “Tolerance”. Moreover, in the data set with corn (preemergence), the Tolerance to corn result is listed as “Tolerance”. Also, the pest or weed control at 2241.7 g/ha with Dicots [1] amounted to 99%; in the data set on Monocots [2], 88%; with Monocots [3], 100%; with Dicots [4] it was 100%. In addition, the pest or weed control at 4483.4 g/ha is 98% with Dicots [1], 81% with Monocots [2], 82% in the data set on Monocots [3] and 99% in the data set with Dicots [4].

Consider `CN(C)c1cc(Oc2ccc(C(F)(F)F)cc2Cl)ccc1[N+](=O)[O-]` [Example 20, 2-chloro-α,α,α-trifluoro-p-tolyl-3-dimethylamino-4-nitrophenyl ether], for which the Tolerance to rice entry in the data set with rice (setting [5]) is recorded as “Tolerance”. Further, the pest or weed control at 2241.7 g/ha in the data set with Dicots [1] is 93%; in the data set with Monocots [2], 80%; in the data set with Monocots [3] it was 80%; in the data set with Dicots [4], 97%. Besides, the pest or weed control at 4483.4 g/ha in the data set with Dicots [1] was 99%; in the data set with Monocots [2], 88%; with Monocots [3] it was 78%; with Dicots [4], 88%.

Consider `Cc1cc(Oc2ccc(C(F)(F)F)cc2Cl)ccc1[N+](=O)[O-]` [Example 36, 2-chloro-α,α,α-trifluoro-p-tolyl-4-nitro-m-tolyl ether], for which the Tolerance to peanuts result in the data set on peanuts (postemergence) and in the data set on peanuts (preemergence) was “Tolerance” each time. The Tolerance to corn entry with corn (postemergence) was “Tolerance”. Also, the pest or weed control at 2241.7 g/ha with Dicots [1] came out at 100%; in the data set with Monocots [2], 100%; in the data set on Monocots [3], 94%; with Dicots [4], 98%. Further, the pest or weed control at 4483.4 g/ha in the data set with Dicots [1] was 100%; with Monocots [2], 93%; in the data set on Monocots [3], 87%; in the data set with Dicots [4] it was 100%. Besides, in the data set on wheat, the Tolerance to wheat result was “Tolerance”.

Turning to `O=[N+]([O-])c1ccc(Oc2ccc(C(F)(F)F)cc2Cl)cc1Cl` [Example 37, 2-chloro-α,α,α-trifluoro-p-tolyl-3-chloro-4-nitrophenyl ether], the Tolerance to peanuts result in the data set on peanuts (postemergence) is on record as “Tolerance”. In addition, the pest or weed control at 2241.7 g/ha in the data set on Dicots [1], with Monocots [2], in the data set with Monocots [3] and in the data set with Dicots [4] was 100% each time. In addition, the pest or weed control at 4483.4 g/ha came to 100% in the data set on Dicots [1], 99% in the data set on Monocots [2], 92% with Monocots [3] and 100% with Dicots [4].

In the case of `CCSC(=O)Nc1cc(Oc2ccc(C(F)(F)F)cc2Cl)ccc1[N+](=O)[O-]` [Example 45], the pest or weed control at 2241.7 g/ha in the data set with Dicots [1] amounted to 77%; in the data set with Monocots [2] it was 68%; in the data set on Monocots [3], 53%; with Dicots [4], 78%. The pest or weed control at 4483.4 g/ha with Dicots [1] is 58%; in the data set on Monocots [2], 13%; in the data set with Monocots [3], 17%; with Dicots [4] it was 88%.

Turning to `CCSC(=O)N(C(=O)SCC)c1cc(Oc2ccc(C(F)(F)F)cc2Cl)ccc1[N+](=O)[O-]` [Example 46], the pest or weed control at 2241.7 g/ha with Dicots [1] was found to be 87%; in the data set with Monocots [2] it was 34%; in the data set with Monocots [3] it was 0%; in the data set with Dicots [4], 4%. The pest or weed control at 4483.4 g/ha with Dicots [1] was found to be 20%; in the data set with Monocots [2], 0%; with Monocots [3], 0%; in the data set on Dicots [4] it was 30%.

As for `N#Cc1cc(Oc2ccc(C(F)(F)F)cc2Cl)ccc1[N+](=O)[O-]` [Example 47, 2-Chloro-α,α,α-trifluoro-p-tolyl-3-cyano-4-nitrophenyl ether], the pest or weed control at 2241.7 g/ha with Dicots [1] amounted to 80%; in the data set on Monocots [2], 80%; in the data set on Monocots [3] it was 24%; with Dicots [4], 84%. Further, the pest or weed control at 4483.4 g/ha in the data set with Dicots [1] came out at 40%; in the data set on Monocots [2], 61%; in the data set with Monocots [3] it was 11%; in the data set with Dicots [4], 72%.

As for `COC(=O)c1cc(Oc2ccc(C(F)(F)F)cc2Cl)ccc1[N+](=O)[O-]` [Example 49, 2-chloro-α,α,α-trifluoro-p-tolyl-3-carbomethoxy-4-nitrophenyl ether], the Tolerance to peanuts result in the data set with peanuts (preemergence) is recorded as “Tolerance”. For the same compound, the Tolerance to soybeans entry in the data set on soybeans is “Tolerance”. The Tolerance to corn result with corn (postemergence) was “Tolerance”. For the same compound, the pest or weed control at 2241.7 g/ha in the data set with Dicots [1] is 100%; in the data set with Monocots [2] it was 100%; with Monocots [3], 77%; in the data set with Dicots [4] it was 100%. Further, the pest or weed control at 4483.4 g/ha with Dicots [1] stood at 95%; with Monocots [2] it was 92%; with Monocots [3], 86%; in the data set on Dicots [4], 100%.

With `CC(Oc1cc(Oc2ccc(C(F)(F)F)cc2Cl)ccc1[N+](=O)[O-])C(N)=O` (stereo not drawn) [Example 51, 2-chloro-α,α,α-trifluoro-p-tolyl-3-(1-carbamoylethoxy)-4-nitrophenyl ether], the pest or weed control at 2241.7 g/ha in the data set on Dicots [1] amounted to 100%; with Monocots [2] it was 96%; with Monocots [3] it was 86%; in the data set with Dicots [4], 98%. For the same compound, the pest or weed control at 4483.4 g/ha in the data set with Dicots [1] came to 100%; in the data set on Monocots [2], 79%; with Monocots [3] it was 75%; in the data set on Dicots [4], 100%.

In the case of `CNC(=O)C(C)Oc1cc(Oc2ccc(C(F)(F)F)cc2Cl)ccc1[N+](=O)[O-]` (centres unmarked) [Example 52], in the data set with rice (preemergence), the Tolerance to rice result is “Tolerance”. The Tolerance to peanuts entry in the data set with peanuts (preemergence) is “Tolerance”. Moreover, the Tolerance to soybeans entry with soybeans is reported as “Tolerance”. Besides, the Tolerance to corn result in the data set with corn (postemergence) and with corn (preemergence) was “Tolerance” throughout. In addition, the pest or weed control at 2241.7 g/ha in the data set on Dicots [1] is 75%; with Monocots [2], 98%; in the data set on Monocots [3], 93%; in the data set with Dicots [4] it was 100%. For the same compound, the pest or weed control at 4483.4 g/ha turned out to be 67% with Dicots [1], 79% in the data set with Monocots [2], 87% in the data set with Monocots [3] and 100% in the data set with Dicots [4].

As for `CC(Oc1cc(Oc2ccc(C(F)(F)F)cc2Cl)ccc1[N+](=O)[O-])C(=O)N(C)C` (centres unmarked) [Example 53], the Tolerance to rice result with rice (setting [5]) was “Tolerance”. Besides, the Tolerance to peanuts result with peanuts (postemergence) and with peanuts (preemergence) was “Tolerance” throughout. In addition, the Tolerance to soybeans entry in the data set on soybeans is recorded as “Tolerance”. Also, the Tolerance to corn result in the data set with corn (postemergence) is given as “Tolerance”. The pest or weed control at 2241.7 g/ha in the data set on Dicots [1] was 100%; in the data set on Monocots [2] it was 98%; in the data set on Monocots [3] it was 81%; in the data set on Dicots [4] it was 100%. Further, the pest or weed control at 4483.4 g/ha is 83% with Dicots [1], 98% in the data set on Monocots [2], 79% in the data set on Monocots [3] and 100% in the data set with Dicots [4].

On to `CCN(C(=O)NC)c1cc(Oc2ccc(C(F)(F)F)cc2Cl)ccc1[N+](=O)[O-]` [Example 55, 2-Chloro-α,α,α-trifluoro-p-tolyl-3-(3-methyl-1-ethylureido)-4-nitrophenyl ether], for which the pest or weed control at 4483.4 g/ha in the data set on Dicots [1] came out at 73%; with Monocots [2], 91%; in the data set on Monocots [3], 69%; with Dicots [4], 95%. The pest or weed control at 2241.7 g/ha in the data set on Monocots [3] came to 31%; in the data set with Dicots [4], 96%.
